Measurements taken from patent publication US20060235222A1, “Indole-derivative modulators of steroid hormone nuclear receptors” (ELI LILLY AND COMPANY, priority 2003, published 2006).

Assays:
human MR = target: T1, human MR (Homo sapiens, UniProt P08235); experiment: Mineralocorticoid Receptor Binding Assay (Method 1), [3H]-aldosterone competition; conditions: 0.5 nM [3H]-aldosterone, human MR expressed in Sf9 cells
T1 construct: The full length human MR gene is cloned from a human kidney or human brain cDNA library; inferred from own knowledge of the pAcHLT vector (N); made in house; host or cells: Sf9 insect cells (baculovirus)
T1 sequence (P08235 1-984): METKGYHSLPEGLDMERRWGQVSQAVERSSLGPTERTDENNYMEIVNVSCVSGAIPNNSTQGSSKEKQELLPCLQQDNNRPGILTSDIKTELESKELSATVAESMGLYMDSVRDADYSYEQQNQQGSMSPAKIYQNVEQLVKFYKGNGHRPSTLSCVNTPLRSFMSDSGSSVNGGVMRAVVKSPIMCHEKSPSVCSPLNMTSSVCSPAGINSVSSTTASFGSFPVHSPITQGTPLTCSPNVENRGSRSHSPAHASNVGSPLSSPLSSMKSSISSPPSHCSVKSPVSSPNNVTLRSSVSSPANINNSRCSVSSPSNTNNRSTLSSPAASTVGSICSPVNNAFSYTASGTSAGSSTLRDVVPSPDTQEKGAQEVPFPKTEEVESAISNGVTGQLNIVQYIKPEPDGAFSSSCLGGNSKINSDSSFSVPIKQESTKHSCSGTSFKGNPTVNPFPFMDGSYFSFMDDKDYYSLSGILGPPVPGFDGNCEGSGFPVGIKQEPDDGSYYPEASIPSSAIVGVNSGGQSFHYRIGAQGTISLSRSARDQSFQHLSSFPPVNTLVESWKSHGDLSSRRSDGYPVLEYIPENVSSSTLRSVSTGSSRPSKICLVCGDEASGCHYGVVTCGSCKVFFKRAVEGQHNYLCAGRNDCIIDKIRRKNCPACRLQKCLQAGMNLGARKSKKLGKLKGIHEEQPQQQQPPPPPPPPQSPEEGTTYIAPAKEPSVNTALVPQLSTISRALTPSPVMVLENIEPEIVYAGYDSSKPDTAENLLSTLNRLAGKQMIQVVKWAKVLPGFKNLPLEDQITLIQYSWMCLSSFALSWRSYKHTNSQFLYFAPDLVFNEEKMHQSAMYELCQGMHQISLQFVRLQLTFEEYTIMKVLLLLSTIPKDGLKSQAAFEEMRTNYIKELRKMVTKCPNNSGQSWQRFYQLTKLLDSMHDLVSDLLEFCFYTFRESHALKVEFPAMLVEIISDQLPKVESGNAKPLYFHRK
Method: Mineralocorticoid Receptor Binding Assay (Method 1):
The full length human MR gene is cloned from a human kidney or human brain cDNA library. […] The PCR reaction is performed in a final volume of 50 μl containing about 1 μl of a 50× stock solution of polymerase; about 1 μl of a 50× stock solution of dNTP; about 5 μl of an appropriate PCR buffer; about 1 μl of each primer; about 5 μl of a H. kidney or H. brain cDNA library; and about 36 μl of water. The reaction is allowed to denature for about 30 seconds at 95 degrees Celsius, anneal for about 30 seconds at 55 degrees Celsius, and extend for about 5 minutes at 72 degrees Celsius, the sequence being repeated for a total of about 35 cycles. […] To extract the cDNA product from the agarose gel, the QIAEX II Gel Extraction protocol (QIAGEN, Inc.) is employed according to the manufacturer's instructions. Following extraction, the MR cDNA is cloned into an appropriate cloning vector (Zero Blunt TOPO PCR Cloning Kit (Invitrogen, Inc.) and a pAcHLT-baculovirus transfer vector (B.D./Pharminogen), then expressed in SF9 insect cells, essentially according to manufacturer's instructions. Sf9 cells are grown at a scale where gram quantity cell pellets are obtained for subsequent use in the MR binding assay. Harvested cell pellets are lysed by repeated freeze-thaw cycles (about 4) in a suitable lysis buffer then centrifuged at about 1×10^3 G (with the supernatant being saved for future assays).
MR binding assays are performed in a final total volume of about 250 μl containing about 20-25 μg of protein and 0.5 nM of [^3H]-aldosterone plus varying concentrations of test compound or vehicle. The assay binding buffer consists of 30 mM sodium molybdate, 30 mM of TRIS-HCl, 5 mM sodium phosphate, 5 mM sodium pyrophosphate, and about 10% glycerol, pH=7.5.
Incubations are carried out at 4 degrees Celsius with shaking for about 16 hours. 200 μl aliquots of each incubation are filtered onto Millipore HA 0.45 micron 96-well filter plates, pre-moistened with cold 30 mM TRIS-HCl. The filter plates are suctioned dry with vacuum and immediately washed 3× with cold 30 mM TRIS-HCl. The plates are then punched out and the amount of receptor-ligand complex is determined by liquid scintillation counting using 4 ml of Ready Protein Plus™ liquid scintillation cocktail.

glucocorticoid receptor = target: T2, glucocorticoid receptor (Homo sapiens, UniProt P04150); experiment: Glucocorticoid Receptor Binding Assay (Method 1), [3H]-dexamethasone competition, A549 cell extract; conditions: 1.86 nM [3H]-dexamethasone, read-out: GR Ki (nM) Method 1
T2 construct: containing 50-200 ug of A549 cell extract and 1.86 nM; host or cells: A549 human lung epithelial cells
T2 sequence (P04150 1-777): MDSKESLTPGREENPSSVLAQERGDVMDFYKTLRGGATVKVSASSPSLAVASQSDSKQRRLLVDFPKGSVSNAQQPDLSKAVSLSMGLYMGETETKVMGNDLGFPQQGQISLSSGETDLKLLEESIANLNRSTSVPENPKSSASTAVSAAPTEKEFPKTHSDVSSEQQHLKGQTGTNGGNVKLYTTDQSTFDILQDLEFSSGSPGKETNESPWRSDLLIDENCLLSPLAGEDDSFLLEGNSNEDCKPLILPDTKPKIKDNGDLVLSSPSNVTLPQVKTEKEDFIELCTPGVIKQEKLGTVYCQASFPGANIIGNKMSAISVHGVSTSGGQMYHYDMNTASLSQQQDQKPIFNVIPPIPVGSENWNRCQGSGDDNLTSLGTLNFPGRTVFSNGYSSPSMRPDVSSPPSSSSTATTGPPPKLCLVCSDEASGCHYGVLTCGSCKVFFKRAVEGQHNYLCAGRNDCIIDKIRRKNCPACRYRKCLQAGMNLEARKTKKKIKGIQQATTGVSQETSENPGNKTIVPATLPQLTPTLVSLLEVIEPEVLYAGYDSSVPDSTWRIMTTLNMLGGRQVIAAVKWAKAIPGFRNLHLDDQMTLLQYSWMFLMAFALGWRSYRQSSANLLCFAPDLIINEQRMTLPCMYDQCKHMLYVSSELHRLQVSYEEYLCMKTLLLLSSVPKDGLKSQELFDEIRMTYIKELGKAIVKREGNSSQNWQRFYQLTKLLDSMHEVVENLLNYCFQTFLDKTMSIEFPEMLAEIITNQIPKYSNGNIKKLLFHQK
Method: Glucocorticoid Receptor Binding Assay (Method 1):
A549 human lung epithelial cells (ATCC) are grown at a scale where gram quantity cell pellets are obtained. Harvested cell pellets are washed twice in cold phosphate buffered saline, centrifuged, and resuspended in cold assay binding buffer. The assay binding buffer consists of 10% glycerol, 50 mM Tris-HCl (pH7.2), 75 mM sodium chloride, 1.5 mM magnesium chloride, 1.5 mM EDTA, and 10 mM sodium molybdate. Cell suspensions were lysed via sonication, centrifuged, and the “extract” supernatant is snap frozen and stored at −80 C until needed.
Incubations are carried out at 4 degrees Celsius for 16 hours. After incubation, 70 ul of 3× dextran-coated charcoal solution is added to each reaction, mixed, and incubated for 8 minutes at RT. 3×-dextran-coated charcoal solution consists of 250 ml assay binding buffer, 3.75 g Norit A charcoal (Sigma), and 1.25 g dextran T-70 (Amersham). Charcoal/unbound radioligand complexes are removed by centrifugation of the plate and 140 ul of supernatant from each well is transferred to another 96 well Optiplate (Packard Instruments). 200 ul of Microscint-20 scinillant (Packard Instruments) is added to each well and amount of receptor bound radioligand is determined using Packard Instruments TopCount instrument.

SMILES	Ki (human MR) [nM]	Ki (glucocorticoid receptor) [nM]
CCCC(C)(c1ccc(OC(F)(F)F)cc1)c1c[nH]c2c(NS(C)(=O)=O)cccc12 (stereo not drawn) [Example 43]	< 500	< 1000
CCCC(C)(c1ccc(F)cc1)c1c[nH]c2c(C)cccc12 (stereo not drawn) [Example 26, 3-[1-(4-Fluoro-phenyl)-1-methyl-butyl]-7-methyl-1H-indole]	< 500	< 500
CS(=O)(=O)Nc1cccc2c(C3(c4ccccc4)CCCC3)c[nH]c12 [Example 21, N-[3-(1-Phenyl-cyclopentyl)-1H-indole-7-yl]-methanesulfonamide]	< 500	< 500
CCC(CC)(c1ccc(C)c(C)c1)c1c[nH]c2c(NS(C)(=O)=O)cccc12 [Example 58, N-{3-[1-(3,4-Dimethyl-phenyl)-1-ethyl-propyl]-1H-indol-7-yl}-methanesulfonamide]	< 500	< 500
CCCC(C)(c1ccc(OC)cc1)c1c[nH]c2c(CC)cccc12 (stereo not drawn) [Example 19, 7-Ethyl-3-[1-(4-methoxy-phenyl)-1-methyl-butyl]-1H-indole]	< 500	< 500
CCC(CC)(c1cccc(F)c1)c1c[nH]c2c(NS(C)(=O)=O)cccc12 [Example 72, N-{3-[1′-Ethyl-1-(3-fluoro-phenyl)-propyl]-1H-indol-7-yl}-methanesulfonamide]	< 500	< 500
CCC(CC)(c1ccc(C)cc1F)c1c[nH]c2c(NS(C)(=O)=O)cccc12 [Example 57, N-{3-[1-Ethyl-1-(2-fluoro-4-methyl-phenyl)-propyl]-1H-indol-7-yl}-methanesulfonamide]	< 500	< 500
CCc1ccc(C(CC)(CC)c2c[nH]c3c(NS(C)(=O)=O)cccc23)cc1 [Example 66, N-{3-[1-Ethyl-1-(4-ethyl-phenyl)-propyl]-1H-indol-7-yl}-methanesulfonamide]	< 500	< 500
COc1ccc(C(C)(c2c[nH]c3c(C)cccc23)C2CC2)cc1 (stereo not drawn) [Example 24, 3-[1-Cyclopropyl-1-(4-methoxy-phenyl)-ethyl]-7-methyl-1H-indole]	< 500	< 500
CCC(CC)(c1ccc(C)cc1C)c1c[nH]c2c(NS(C)(=O)=O)cccc12 [Example 60, N-{3-[1-(2,4-Dimethyl-phenyl)-1-ethyl-propyl]-1H-indol-7-yl}-methanesulfonamide]	< 500	< 500
CCCC(C)(c1ccc(OC)cc1)c1c[nH]c2c(NS(C)(=O)=O)cccc12 (stereo not drawn) [Example 45, N-{3-[1-(4-Methoxy-phenyl)-1-methyl-butyl]-1H-indol-7-yl}-methanesulfonamide]	< 500	< 500

Next, values leading:

Ki (human MR) [nM]	Ki (glucocorticoid receptor) [nM]	SMILES
< 500	< 500	CS(=O)(=O)Nc1cccc2c(C3(c4ccccc4)CCOCC3)c[nH]c12 [Example 33, N-[3-(4-Phenyl-tetrahydro-pyran-4-yl)-1H-indol-7-yl]-methanesulfonamide]
< 500	< 500	CCCC(CCC)(c1ccc(OC)cc1)c1c[nH]c2c(NS(C)(=O)=O)cccc12 [Example 69, N-{3-[1-(4-Methoxy-phenyl)-1-propyl-butyl]-1H-indol-7-yl}-methanesulfonamide]
< 500	< 500	CCCC(C)(c1ccccc1)c1c[nH]c2c(NS(C)(=O)=O)cccc12 (stereo not drawn) [Example 70, N-[3-(1-Methyl-1-phenyl-butyl)-1H-indol-7-yl]-methanesulfonamide]
< 500	< 500	CCC(CC)(c1ccccc1F)c1c[nH]c2c(NS(C)(=O)=O)cccc12 [Example 68, N-{3-[1-Ethyl-1-(2-fluoro-phenyl)-propyl]-1H-indol-7-yl}-methanesulfonamide]
< 10000	< 10000	O=C(O)CCn1cc(C(c2ccccc2)(c2ccccc2)c2ccccc2)c2ccccc21 [Example 52, 3-(3-Trityl-indol-1-yl)-propionic acid]
< 500	< 500	CCC(C)(c1ccc(OC)cc1)c1c[nH]c2c(C)cccc12 (stereo not drawn) [Example 31, 3-[1-(4-Methoxy-phenyl)-1-methyl-propyl]-7-methyl-1H-indole]
< 500	< 500	CCC(C)(c1ccc(C)cc1)c1c[nH]c2c(NS(C)(=O)=O)cccc12 (stereo not drawn) [Example 65, N-[3-(1-Methyl-1-p-tolyl-propyl)-1H-indol-7-yl]-methanesulfonamide]
< 500	< 500	CCC(CC)(c1ccccc1)c1c[nH]c2c(NS(C)(=O)=O)cccc12 [Example 61, N-[3-(1-Ethyl-1-phenyl-propyl)-1H-indol-7-yl]-methanesulfonamide]
< 500	< 500	CCC(CC)(c1cccs1)c1c[nH]c2c(NS(C)(=O)=O)cccc12 [Example 15, N-[3-(1-Ethyl-1-thiophen-2-yl-propyl)-1H-indol-7-yl]-methanesulfonamide]
< 500	< 500	CCc1cccc2c(C(C)(c3ccccc3)c3ccc(OC)cc3)c[nH]c12 (stereo not drawn) [Example 25]
